From US20260242350A1, “POLYCYCLIC THYROID HORMONE BETA RECEPTOR AGONIST AND USE THEREOF” (CASCADE PHARMACEUTICALS, INC., priority 2023, published 2026)

What was measured:
[1] = target: T1, THRα LBD (His-GST-dLBT-THRα LBD) (Homo sapiens, UniProt P10827); assay: THR-FRET (time-resolved fluorescence resonance energy transfer) agonist activity assay, THRα; type: biochemical; conditions: 24 h at room temperature
T1 construct: made in house; host or cells: E. coli BL21 (DE3)
T1 sequence (P10827 163-407 isoform P10827-2): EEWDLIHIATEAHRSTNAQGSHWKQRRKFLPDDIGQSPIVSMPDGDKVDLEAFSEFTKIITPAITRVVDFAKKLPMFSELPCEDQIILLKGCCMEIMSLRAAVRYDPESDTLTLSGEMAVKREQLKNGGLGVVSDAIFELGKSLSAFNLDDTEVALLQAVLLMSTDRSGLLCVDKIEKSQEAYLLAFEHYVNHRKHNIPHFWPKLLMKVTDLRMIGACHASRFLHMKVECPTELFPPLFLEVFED
Description: (§1) Experimental Example 1: Detection of Agonist Activities of Compounds Against THRα/β Based on Time-Resolved Fluorescence Resonance Energy Transfer (THR-FRET)
(§2) 1. Construction of THRα/β Overexpression Vectors
(§3) By visiting NCBI, the THRα/β LBD domain sequences were found. The pET21-His-GST-dLBT-THRα LBD and pET21-His-GST-dLBT-THRβLBD overexpression vectors were constructed by the fusion method, and sequenced to confirm the accuracy of the sequences.
(§4) 2. Prokaryotic Expression of Recombinant Proteins in E. coli
(§5) The THRα LBD and THRβLBD overexpression vectors confirmed by sequencing were transfected into E. coli cells BL21 (DE3), and spread on an ampicillin-resistant agar plate. Monoclones were picked out and amplified in an LB medium, and transferred into 1 L LB at a ratio of 1:100 for large-scale culture. When the OD value was at 0.8 to 1.2, 0.5 mM isopropyl-beta-D-thiogalactopyranoside (IPTG) was added, and induced overnight at 18° C. The bacteria were harvested, disrupted, and purified via the GST column and the molecular sieve to obtain two proteins His-GST-dLBT-THRα LBD and His-GST-dLBT-THRβLBD.
(§6) 3. Preparation of Compounds and Formulation of Reaction System
(§7) The proteins were taken out from a refrigerator at −80° C. The protein s with the GST-tagged THRα/p LBD domain and the Eu-labelled GST antibodies were thawed slowly on ice, and an assay buffer containing a final concentration of 5 mM dithiothreitol (DTT) was formulated.
(§8) 3.1 Preparation of Compounds
(§9) The starting concentration of the compound was 10 μM (in DMSO). The compound (100 μM in DMSO) was subjected to 3-fold isogradient dilution with DMSO to obtain a total of 11 isogradient concentrations. Subsequently, the above compounds at the isogradient concentration were further subjected to 50-fold dilution with an assay buffer containing 5 mM DTT.
(§10) 3.2 Formulation of THR-FRET Reaction System
(§11) The final concentrations of all components were calculated based on a system with a final volume of 20 µL per well. To […] of assay buffer containing 5 mM DTT, the GST-tagged THRα/β proteins, the SRC2 ([…]) polypeptide, XL665 (Cisobio, #610SAXLB), and the Eu-labeled GST antibody were added, and the final concentrations were 2 nM, 200 nM, 0.05 nM, and 7.6 nM respectively to formulate 18 μL of reaction mixture of the proteins, polypeptide, and antibody per well.
(§12) 18 μL of reaction mixture and 2 μL of diluted compound were added into an optiplate-384-well plate, and reacted at room temperature for 24 h.
(§13) The plate was read using an MD i3x multi-mode microplate reader with the excitation and emission wavelengths of 340 nm and 665 nm, respectively. The intensity of light at a wavelength of 616 nm generated by europium excited by 340 nm wavelength light from the MD i3x multi-mode microplate reader was used as the background. According to the different activation degrees of different compounds against THRα and THRβ, the intensity of the emission light at a wavelength of 665 nm generated by exciting XL665 with the exciting light at a wavelength of 616 nm was varied. The intensity ratio between these two light wavelengths (665 nm, 616 nm) was used as the activation activity of the compound against THRα or THRβ, and was normalized against the ratio in the vehicle DMSO group. The dose-response curve was fitted with four parameters using the GraphPad Prism 6.0 software, and the EC50 value was calculated.

THRβ (pGAL4-THRβ-LBD) = target: T2, THRβ (pGAL4-THRβ-LBD) (Homo sapiens, UniProt P10828); assay: Reporter gene (Dual-Glo luciferase) agonist activity assay in HEK293T cells, THRβ; type: cell-based; conditions: ratio of EC50 THRα/THRβ
T2 construct: expressed in transfected cells; host or cells: HEK293T
T2 sequence (P10828 217-461): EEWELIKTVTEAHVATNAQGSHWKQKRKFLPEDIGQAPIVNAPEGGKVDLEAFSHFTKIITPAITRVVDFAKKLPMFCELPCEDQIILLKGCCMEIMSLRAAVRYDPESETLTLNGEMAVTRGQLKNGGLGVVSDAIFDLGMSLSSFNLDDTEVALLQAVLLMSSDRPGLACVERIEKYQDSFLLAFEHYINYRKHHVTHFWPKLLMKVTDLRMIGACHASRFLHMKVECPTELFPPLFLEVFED
Description: Experimental Example 2: Detection of Agonist Activities of Compounds Against THRα and THRβ Based on Reporter Gene Activity Assay Method
1.1 Construction and Preparation of Plasmids pGAL4-THR-LBD and pG5-Luc
The pGAL4-THRα-LBD and pGAL4-THRβ-LBD plasmids used in the reporter gene assay system were constructed by a conventional molecular cloning method comprising the following main steps: the cDNA sequences of THRα (NM_003250) and THRβ(NM_000461) corresponding to the amino acid sequences of THRα (163-407AA) and THRβ(217-461AA) were inserted into the BamHI and NotI enzyme digestion sites of the pGAL4 vector by the PCR technique respectively to obtain the pGAL4-THRα-LBD and pGAL4-THRβ-LBD plasmids; the pG5-Luc (#E249A) and pRL-TK (#E2241) plasmids were purchased from Promega; the plasmids were transfected into the E. coli DH5a by the CaCl2 method, and after further culture and amplification, the plasmids were purified by Plasmid Extraction Kits (TIANGEN, #D107) to obtain the corresponding plasmid DNAs.
1.2 Co-Transfection of Plasmids into HEK293T Cells and Treatment with Compounds
The HEK293T cells were inoculated into a 96-well plate at a density of 1×10^4/well the day before plasmid transfection. Cell transfection was conducted according to the instructions of the transfection reagent FuGENE® HD (Promega, #E2311). The main steps were as follows: taking one well as an example here, the plasmids pGAL4-THRα-LBD or pGAL4-THRβ-LBD, pG5-Luc, and pRL-TK were added in the proportions of 20 ng, 50 ng, and 5 ng to 10 μL of Opti-MEM™ I medium (Gibco, #11058021) and mixed well; subsequently, 0.25 μL of FuGENE® HD was added, mixed well, and then left at room temperature for 5 min; afterwards, […] was added to the cell wells containing 100 μL of culture medium. After cell co-transfection for 6 h, the compound was diluted in a 3-fold gradient with dimethyl sulfoxide at the highest concentration of 1 μM. The compound was added to the cell culture medium at a total of 10 concentrations for treatment for 24 h. There were a total of two duplicate wells for each concentration. Triiodothyronine (T3) was used as the positive control.
1.3 Dual-Glo Luciferase Assay
After the cells were treated with the compound for 24 h, the cells were assayed according to the instructions of Dual-Glo® Luciferase Assay System (Promega, #E2940). The main steps were as follows: 50 μL of culture medium was aspirated from each well and discarded, and then 50 μL of Dual-Glo® Luciferase reagent was added and oscillated at room temperature for 10 min; 80 μL of lysis reaction solution was measured into a white opaque optiPlate-96-well plate, and the luminescence signal value (Firefly-Luc) of the Firefly luciferase was detected using an MD i3x multi-mode microplate reader; 40 μL of Dual-Glo® Stop & Glo® reagent was then added, and oscillated at room temperature for 10 min; the luminescence signal value (Renilla-Luc) of the Renilla luciferase was then detected using an MD i3x multi-mode microplate reader. The Firefly-Luc/Renilla-Luc ratio was used as the activation activity of the compound against THR, and was normalized against the ratio in the vehicle DMSO group; the dose-response curve was fitted with four parameters using the GraphPad Prism6.0 software, and the EC50 value was calculated.

[2] = target: T3, THRβ LBD (His-GST-dLBT-THRβLBD) (Homo sapiens, UniProt P10828); assay: THR-FRET (time-resolved fluorescence resonance energy transfer) agonist activity assay, THRβ; type: biochemical; conditions: for EC50: 24 h at room temperature; for Selectivity (THRα/THRβ): ratio of EC50 THRα/THRβ
T3 construct: made in house; host or cells: E. coli BL21 (DE3)
T3 sequence (P10828 217-461 limits assumed): T2 sequence (P10828 217-461)
Description: as §1, §2, §3, §4, §5, §6, §7, §8, §9, §10, §11, §12, §13

| SMILES | EC50 [1] [nM] | Selectivity (THRα/THRβ) (THRβ (pGAL4-THRβ-LBD)) | EC50 [2] [nM] | Selectivity (THRα/THRβ) [2] |
| --- | --- | --- | --- | --- |
| Cc1cccc2c1c(=O)ccn2Cc1c(Cl)cc(-n2nc(C(F)F)c(=O)[nH]c2=O)cc1Cl [Compound 47] | 100 to 1000 | † (5 ≥ THRα/β) | < 50 | †† (10 > THRα/β > 1) |
| Cc1nn(-c2cc(Cl)c(Cn3ccc(=O)c4c(C)cccc43)c(Cl)c2)c(=O)[nH]c1=O [Compound 44] | 100 to 1000 | † (5 ≥ THRα/β) | 50 to 100 | †† (10 > THRα/β > 1) |
| Cc1nn(-c2cc(Cl)c(Cn3ccc(=O)c4c(C)cccc43)c(Br)c2)c(=O)[nH]c1=O [Compound 46] | 50 to 100 | † (5 ≥ THRα/β) | < 50 | †† (10 > THRα/β > 1) |
